This is an account of results in the METLIN SMRT retention time set (Domingo-Almenara et al. 2019).

The nature of this series: gradient 5% acetonitrile 3 min, to 50% in 2 min, to 85% in 15 min, held 3 min, 100 µL/min. The note with it: column: Zorbax Extend-C18 2.1 x 50 mm; eluents: water / acetonitrile, 0.1% formic acid. In short, it runs like this:
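Retention times come from adduct peaks that were picked computationally and then checked by hand. The standards, pure and pooled in mixtures of ~100 molecules, were run on a Zorbax Extend-C18 column (2.1 × 50 mm, 1.8 μm) at 100 μL/min with water and acetonitrile, each with 0.1% formic acid. Detection was by quadrupole time-of-flight mass spectrometry in positive and negative ionization mode, with a dead volume of 40 μL and a dwell volume of 900 μL.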
For the compound `CCN1CCCC1CN(CC(=O)N1CCNCC1)S(=O)(=O)c1c(C)cc(C)cc1C` (configuration not stated), the RP-LC retention time stood at 588 s.
The compound `CCOC(=O)c1c(S(=O)(=O)N2CCC(C(=O)N3CCc4ccccc43)CC2)c(C)n(C)c1C` displayed an RP-LC retention time of 913 s.
The figure for `Cc1cc(C)cc(NC(=O)CN2C(=O)C(C)(C)c3ccccc32)c1` is 968 s; for `Cc1ccc(C)c(NC(=O)Cn2cccc2-c2nnc(C3CCC3)o2)c1` it is 977 s.
The compound `O=C(Cc1nnc(-c2ccc3ncccc3c2)o1)Nc1ccc(F)cc1` displayed an RP-LC retention time of 697 s.
The figure for `COc1ccc(N2CCN(Cc3nc(-c4ccc(N5CCOCC5)nc4)no3)CC2)cc1` is 688 s; for `Cc1noc(C)c1S(=O)(=O)N1CCC(n2c(C)cnc2-c2ccncc2)C1` (configuration not stated) it is 616 s; for `COc1ccc(CN2N=C(C(=O)N3CCCC3)S(=O)(=O)c3ccccc32)cc1F` it is 725 s.
`COC1C(=O)N(CC2CC2)C12CCN(C(=O)c1ccc(C)s1)CC2` (configuration not stated) displayed an RP-LC retention time of 566 s.
With `O=C(Nc1ccccc1F)C1CCc2nc(N3CCCCC3)ncc2C1` (configuration not stated), the RP-LC retention time was 772 s.
`CCCN1C(=O)COc2ccc(-c3noc(Cc4ccc(NC(C)=O)cc4)n3)cc21` displayed an RP-LC retention time of 841 s.
As for `Cc1cc(F)ccc1NC(=O)C1CCN(S(=O)(=O)c2cc(C(=O)N(C)C)cs2)CC1`, the figure is 758 s.
Regarding `CC(C)c1csc(-c2csc(S(=O)(=O)N3CCN(c4ccccc4F)CC3)c2)n1`, the RP-LC retention time stood at 1330 s.
For `CN(c1nccn2c(=O)n(CC(=O)Nc3cc(F)ccc3F)nc12)C1CCCCC1`, the RP-LC retention time worked out at 786 s.
As to `CCn1c(=O)sc2cc(S(=O)(=O)N3CCC(C(=O)Nc4ccc(C)cc4)CC3)ccc21`, the RP-LC retention time worked out at 940 s.
The figure for `Cc1ccc(CNC(=O)CNC(=O)N2CCSc3nc(C)cc(C)c32)cc1` is 670 s.
Compound `Cn1nc(CNC(=O)C2(c3ccccc3)CC2)c2c1CCN(S(C)(=O)=O)C2` came in with an RP-LC retention time of 694 s.
The compound `O=C(CCCn1c(=O)c2cccn2c2ccccc21)NCCCN1CCC(N2CCCCC2)CC1` returned an RP-LC retention time of 584 s.
Regarding `O=C(c1ccc2[nH]ccc2c1)N1CCN(c2cc(-c3cccs3)[nH]n2)CC1`, the RP-LC retention time was determined as 708 s.
For the compound `COc1ccccc1C(=O)N1C[C@H](c2nc(-c3ccncc3)no2)[C@@H](C)C1`, the RP-LC retention time was 737 s.
`O=C(Nc1ccc2c(c1)OCO2)c1noc2c1CCCCC2` registered an RP-LC retention time of 967 s.
`CCN1CCn2cc(S(=O)(=O)Nc3ccc(F)c(C)c3)cc2C1=O` had an RP-LC retention time of 742 s.
The figure for `CNC(=O)c1n[nH]c2c1CC(C)CC2` (configuration not stated) is 642 s.
For `O=C(OCc1cc(-c2ccc3c(c2)OCCO3)on1)c1ccc(Br)o1`, the RP-LC retention time worked out at 978 s.
`COCCNC(=O)Cn1nc(C)c2sc(-c3ccccc3)nc2c1=O` registered an RP-LC retention time of 682 s.
With `O=C(N[C@@H]1CN(C2CCOCC2)C[C@H]1CO)c1ccc2c(c1)OCO2`, the RP-LC retention time was 566 s.
As for `O=C(NCc1ccc(Cl)cc1)C1CCN(c2cncnc2N2CCOCC2)CC1`, the figure is 647 s; as for `Cn1c(=O)n(-c2ccc(F)cc2)c2nc(-c3ccccc3Cl)nc(C(N)=O)c21`, 912 s.
Take `COc1ccc(C2CC(=O)N(c3ccc(C)c(Cl)c3)C(=O)C2)cc1`: the RP-LC retention time is 1010 s.
As for `COc1ccc2c(c1)CC(NC(=O)N1CCN(Cc3ccccc3)CC1)CO2` (configuration not stated), the figure is 637 s; as for `COc1ccc(COC(=O)C2=CN(Cc3ccc(OC)cc3)S(=O)(=O)N=C2C)cc1`, 923 s; as for `CC1CCN(c2ccc(-c3noc(CN4CCN(c5ccccc5F)CC4)n3)cn2)CC1`, 1090 s.
